Reference: patent US10100077B2, “6-aryl-9-glycosylpurines and use thereof” (UNIVERZITA PALACKEHO V OLOMOUCI, priority 2014, dated 2018)

Assays:
[1] = system: skin fibroblasts BJ and keratinocytes HaCaT; assay: SRB in vitro toxicity test; format: cell-based; conditions: Homo sapiens, 72 hour treatment, maximal concentration 50 microM
Summary of the method: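 BJ fibroblasts and HaCaT keratinocytes were exposed for 72 h to sixfold-diluted compound (maximum 50 μM), with DMSO as vehicle. Cells were TCA-fixed and stained with SRB, and absorbance was read at 564 nm. IC50 was calculated from dose-response curves.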

[2] = system: Arabidopsis wild-type plants (Col-0) detached leaves; assay: Differential gene expression study (RNA sequencing) in senescent detached leaves; conditions: 6 h, 10 μM
Procedure: Comparative gene expression analysis in Arabidopsis model was performed to gain information about the reprogramming of gene transcription when senescent leaves were treated with 6-(3-methoxybenzylamino)-9-β-D-arabinofuranosylpurine (3MeOBAPA).
For isolation of total RNA, Arabidopsis wild-type plants (Col-0) were used, which were either treated with 3MeOBAPA or left untreated. Wild-type plants were grown in soil for 30 days, and then leaves of similar size and chlorophyll content were cut and immediately used for the treatment. At least 20 detached leaves were submerged in 1×MS medium supplemented with 10 μM 3MeOBAPA. Control samples were mock treated with DMSO only. After incubation for 6 h or 48 h in the dark, detached leaves were frozen in liquid nitrogen and used for RNA isolation; 150 mg of liquid nitrogen-ground material was used per isolation. cDNA sequencing libraries were prepared with the Illumina TruSeq Stranded mRNA LT Sample Prep Kit (Illumina, San Diego, Calif.) according to standard Illumina's protocols and sequenced on HiSeq 2500 apparatus (50 bp single-end reads). […] To gain insight into the molecular mechanism of 3MeOBAPA action in Arabidopsis we decided to analyze the gene expression patterns via comparison of mock (DMSO)-treated plants with those obtained after i) short time treatment with 3MeOBAPA (6 h) and ii) long time treatment (48 h). This comparison leads to identification of group of genes with similar kinetic of expression and helps to understand possible mechanism of regulation. For data analysis, we performed ab initio method where sequencing reads were mapped to the reference genome.

With `COc1cccc(CNc2ncnc3c2ncn3[C@@H]2O[C@H](CO)[C@@H](O)[C@@H]2O)c1` [6-(3-methoxybenzylamino)-9-β-D-arabinofuranosylpurine] the IC50 [1] was greater than 50 µM, the “logFC AT1G02790 Polygalacturonase 4 (PGA4)” value [2] was 1.67 and the “logFC AT1G05580 Cation/H(+) exchanger 23 (CHX23)” value [2] was 1.26. For the same compound, the “logFC AT1G10585 Basic helix-loop-helix (bHLH) DNA-binding superfamily protein” value [2] was 0.38, the “logFC AT1G15540 2-oxoglutarate and Fe(II)-dependent oxygenase superfamily protein” value [2] was 0.57 and the “logFC AT1G19670 Chlorophyllase-1 (CLH1)” value [2] was 0.63. For the same compound, the “logFC AT1G55560 SKU5 similar 14 (SKS14)” value [2] was 1.71, the “logFC AT1G59860 17.6 kDa class I heat shock protein 1 (HSP17.6A)” value [2] was 0.48 and the “logFC AT1G59950 NAD(P)-linked oxidoreductase superfamily protein” value [2] was 1.08. For the same compound, the “logFC AT1G75830 Defensin-like protein 1.1 (PDF1.1)” value [2] was 1.06, the “logFC AT1G76640 Calcium-binding EF-hand family protein (CML39)” value [2] was 0.78 and the “logFC AT2G02010 Glutamate decarboxylase 4 (GAD4)” value [2] was 0.55. The “logFC AT2G04460 Transposable element gene” value [2] was 1.16, the “logFC AT2G18150 Peroxidase 15 (PER15)” value [2] was 0.68 and the “logFC AT2G21900 WRKY transcription factor 59 (WRKY59)” value [2] was 0.54. For the same compound, the “logFC AT2G26010 Defensin-like protein 1.3 (PDF1.3)” value [2] was 1.47, the “logFC AT2G26020 Defensin-like protein 1.2B (PDF1.2B)” value [2] was 1.52 and the “logFC AT2G26695 Ran BP2/NZF zinc finger-like superfamily protein” value [2] was 0.50. The “logFC AT2G28210 Alpha carbonic anhydrase 2 (ATACA2)” value [2] was 0.85, the “logFC AT2G37430 Zinc finger protein ZAT11” value [2] was 0.42 and the “logFC AT2G39030 L-ornithine N5-acetyltransferase (NATA1)” value [2] was 0.56. The “logFC AT2G47040 Pectin methylesterase Vanguard1 (VGD1)” value [2] was 2.80, the “logFC AT2G47050 Plant invertase/pectin methylesterase inhibitor superfamily protein” value [2] was 2.31 and the “logFC AT3G05610 Pectinesterase/pectinesterase inhibitor 21 (PME21)” value [2] was 1.80. For the same compound, the “logFC AT3G07820 Pectin lyase-like superfamily protein” value [2] was 2.22, the “logFC AT3G09340 Transmembrane amino acid transporter family protein” value [2] was 0.55 and the “logFC AT3G11340 UDP-Glycosyltransferase superfamily protein” value [2] was 0.51. The “logFC AT3G13400 SKU5 similar 13 (SKS13)” value [2] was 0.82, the “logFC AT3G28153 Transposable element gene” value [2] was 0.92 and the “logFC AT3G28155 ARM repeat superfamily protein” value [2] was 0.59. For the same compound, the “logFC AT3G44830 Putative phospholipid: diacylglycerol acyltransferase 2 (PDAT2)” value [2] was 0.38, the “logFC AT3G62710 Glycosyl hydrolase family protein” value [2] was 1.35 and the “logFC AT4G01390 TRAF-like family protein” value [2] was 0.79. For the same compound, the “logFC AT4G21830 Peptide methionine sulfoxide reductase B7 (MSRB7)” value [2] was 0.55, the “logFC AT4G22030 F-box domain, cyclin-like, F-box domain, Skp2-like protein” value [2] was 0.41 and the “logFC AT4G22620 SAUR-like auxin-responsive family protein” value [2] was 0.46. The “logFC AT4G24350 Phosphorylase superfamily protein” value [2] was 0.64, the “logFC AT4G26010 Peroxidase 44 (PER44)” value [2] was 0.53 and the “logFC AT4G31950 Cytochrome P450 82C3 (CYP82C3)” value [2] was 0.37. For the same compound, the “logFC AT4G35010 Beta-galactosidase 11 (BGAL11)” value [2] was 2.03, the “logFC AT4G37780 Myb domain protein 87 (MYB87)” value [2] was 0.41 and the “logFC AT4G39320 Microtubule-associated protein-related” value [2] was 0.45. For the same compound, the “logFC AT5G03610 GDSL esterase/lipase” value [2] was 0.42, the “logFC AT5G12960 Putative glycosyl hydrolase” value [2] was 1.33 and the “logFC AT5G44420 Defensin-like protein 1.2A (PDF1.2A)” value [2] was 1.58. The “logFC AT5G44430 Defensin-like protein 1.2C (PDF1.2C)” value [2] was 1.75, the “logFC AT5G45880 Pollen Ole e 1 allergen and extensin family protein” value [2] was 1.45 and the “logFC AT5G52670 Copper transport family protein” value [2] was 0.57. For the same compound, the “logFC AT5G61160 Agmatine coumaroyltransferase (ACT)” value [2] was 1.13, the “logFC AT5G62720 Integral membrane HPP family protein” value [2] was 0.44 and the “logFC AT5G63270 RPM1-interacting protein 4 (RIN4) family protein” value [2] was 0.56. For the same compound, the “number of downregulated genes (P≤0.05)” value ([2]; vs mock) was 1119 genes and the “number of upregulated genes (P≤0.05)” value ([2]; vs mock) was 1102 genes.
